Measured values published in patent US20060106098A1, “Andrographolide and its derivatives as TNF-alpha antagonists” (Advanced Gene Technology, Corp., priority 2004, published 2006).

What was measured:
L929 cells = test: Cytotoxicity on L929 cells (XTT, with Act D, without TNFα); assay type: cell-based; conditions: at the IC50 concentration (60 μM)
Protocol: (§1) In vitro L929 cell proliferation/cytotoxicity assay was performed on microtiter plates. L929 cells were cultured in Eagle's Minimal Essential Medium (EMEM) containing 10% bovine serum, 1% P/S and 1% non-essential amino acid. Confluent L929 cells were washed with 2 ml PBS solution and then trypsinized, followed by resuspending in complete medium. Two hundred μl cell suspension was aspirated for counting the cell density and the other suspension was centrifuged at 1500 rpm for 5 min. The supernatant was removed and the complete medium was added to dilute cells to a final concentration of 1.5×10^5 cells/ml. One hundred μl of cell suspension was added to each well in 96-well flat-bottomed microtiter plates and incubated for 24 hrs in 5% CO2 atmosphere at 37° C.
(§2) The same samples as those for TNFα activity assay were added to the 96-well plate with the medium containing Act D to give the final concentration of Act D 2 μg/ml. […] 50 μl XTT (2,3-bis(2-methoxy-4-nitro-5-sulfophenyl)-5-[((phenylamino)carbonyl]-2H-tetra -zolium hydroxide) mixture was added to each well, and incubated for 4 hrs. Read with ELISA reader at O.D. 490/630 nm. Calculation of the TNFα Activity Inhabitation and Cytotoxicity [formula] [formula] 8. The Effect of the Methanolic Extract of A. Paniculata on L929 Cell Proliferation/Cytotoxicity Assay

TNFα = target: T1, TNFα (Homo sapiens, UniProt P01375); test: In vitro L929 cell proliferation/cytotoxicity assay, TNFα activity inhibition; assay type: cell-based; conditions: L929 cell line, TNFα 0.1 ng/ml, Act D 2 μg/ml; read-out: IC50 as TNFα antagonist
T1 construct: purchased
T1 sequence (P01375 77-233 limits assumed): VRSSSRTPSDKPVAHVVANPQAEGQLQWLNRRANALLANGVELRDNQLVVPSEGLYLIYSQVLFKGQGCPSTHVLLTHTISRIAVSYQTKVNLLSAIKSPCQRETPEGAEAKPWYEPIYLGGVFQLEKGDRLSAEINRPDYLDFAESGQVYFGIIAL
Protocol: as §1
The chemical was resuspended in 1×PBS and sterilized with 0.22 μm filters. […]
as §2

[1] = tested on: collagen-induced arthritis; test: Anti-inflammatory effect on rats with collagen-induced arthritis model; assay type: in vivo, SD rats; conditions: for histopathological slice of joint: rat with CIA
[2] = CIA rats, 3rd day after treatment stopped (T4)
[3] = CIA rats, 7th day after treatment stopped (T5)

SMILES | cytotoxicity (L929 cells) | IC50 (TNFα) [µM] | decreased percentage of edema [1, 2] [%] | decreased percentage of edema [1, 3] [%] | decreased percentage of edema volume of hind paws ([1]; CIA rats, during the 7-day treatment (T3, 6th day of treatment)) [%] | histopathological slice of joint ([1]; treated IP) | histopathological slice of joint ([1]; treated by external application) | histopathological slice of joint ([1]; treated by oral)
C=C1CC[C@@H]2[C@](C)(CO)[C@H](O)CC[C@@]2(C)[C@@H]1C/C=C1/C(=O)OC[C@H]1O [andrographolide, Andrographolide] | No cytotocixity was found | 60 | 61.43 | 50.24 | 48.1 | Proliferation of synovial lining cell and infiltration of erythrocytes and some lymphocytes were observed | Proliferation of synovial lining cell and loosely connective tissues appeared | Proliferation of synovial lining cell and infiltration of lymphocytes were found
C[C@@H]1C[C@H]2[C@@H]3CCC4=CC(=O)C=C[C@]4(C)[C@@]3(F)[C@@H](O)C[C@]2(C)[C@@]1(O)C(=O)CO [dexamethasone, Dexamethasone, reference compound] |  |  | 28.21 | 29.97 |  |  |  | 
